Results taken from patent US20080146616A1, “Indoles Useful in the Treatment of Inflammation” (priority 2004, published 2008).

These compounds were tested against T1, human mPGES-1 (Homo sapiens, UniProt O14684) (assay: mPGES-1 inhibition assay (conversion of PGH2 to PGE2, HPLC analysis)). Details: human mPGES-1 expressed in E. coli, membrane fraction; 25 min preincubation, PGH2 substrate 60 s, room temperature; read-out: concentration at which 50% inhibition of mPGES-1 was observed.
T1 construct: made in house; host or cells: E. coli (membrane fraction)
T1 sequence (O14684 1-152): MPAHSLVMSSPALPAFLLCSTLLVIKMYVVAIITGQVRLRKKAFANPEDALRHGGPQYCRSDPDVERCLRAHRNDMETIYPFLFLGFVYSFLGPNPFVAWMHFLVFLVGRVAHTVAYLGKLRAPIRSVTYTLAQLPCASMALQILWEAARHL
Assay type: biochemical
Experimental: In the assay human in PGES-1 catalyses the reaction where the substrate PGH2 is converted to PGE2. mPGES-1 is expressed in E. Coli and the membrane fraction is dissolved in 20mM NaPi-buffer pH 8.0 and stored at −80° C. In the assay human mPGES-1 is dissolved in 0.1 M KPi-buffer pH 7.35 with 2.5 mM glutathione. The stop solution consists of H2O/MeCN (7/3), containing FeCl2 (25 mM) and HCl (0.15 M). The assay is performed at room temperature in 96-well plates. Analysis of the amount of PGE2 is performed with reversed phase HPLC (Waters 2795 equipped with a 3.9×150 mm C18 column). The mobile phase consists of H2O/MeCN (7/3), containing TFA (0.056%), and absorbance is measured at […] with a Waters 2487 UV-detector.
The following is added chronologically to each well: • 1. 100 μL human mPGES-1 in KPi-buffer with glutathione. Total protein concentration: 0.02 mg/mL. • 2. […] inhibitor in DMSO. Incubation of the plate at room temperature for 25 minutes. • 3. 4 μL of a […] PGH2 solution. Incubation of the plate at room temperature for 60 seconds. • 4. 100 μL stop solution. • 180 μL per sample is analyzed with HPLC.
Compound `CC(C)Oc1ccc(-c2c(C(=O)O)n(-c3cccc(OC(C)C)c3)c3ccc(-c4ccc(C(C)(C)C)cc4)cc23)cc1` [Example 2, 5-(4-tert-Butylphenyl)-1-(3-isopropoxyphenyl)-3-(4-isopropoxyphenyl)-indole-2-carboxylic acid] has an IC50 of 350 nM. `CC(C)Oc1ccc(-c2c(C(=O)O)n(-c3ccc(N(C)C)cc3)c3ccc(-c4ccc(C(C)(C)C)cc4)cc23)cc1` [Example 5, 5-(4-tert-Butylphenyl)-1-(4-(dimethylamino)phenyl)-3-(4-isopropoxyphenyl)indole-2-carboxylic acid] was tested, and the IC50 was 210 nM. In the case of `CC(C)Nc1ccc(-n2c(C(=O)O)c(-c3ccc(OC(C)C)cc3)c3cc(-c4ccc(C(C)(C)C)cc4)ccc32)cc1` [Example 6, 5-(4-tert-Butylphenyl)-3-(4-isopropoxyphenyl)-1-(4-(isopropylamino)-phenyl)indole-2-carboxylic acid], the IC50 is reported as 70 nM. Compound `CC(C)Oc1ccc(-n2c(C(=O)O)c(-c3cccnc3)c3cc(-c4ccc(C(F)(F)F)cc4)ccc32)cn1` [Example 11, 1-(6-Isopropoxypyrid-3-yl)-3-(pyrid-3-yl)-5-(4-(trifluoromethyl)phenyl)-indole-2-carboxylic acid] has an IC50 of 1800 nM. `CC(C)Oc1ccc(-c2c(C(=O)O)n(-c3cccnc3)c3ccc(-c4ccc(C(C)(C)C)cc4)cc23)cc1` [Example 13, 5-(4-tert-Butylphenyl)-3-(4-isopropoxyphenyl)-1-pyrid-3-yl-1H-indole-2-carboxylic acid] gave an IC50 of 950 nM.
